Measurements reported in patent publication US5019574A, “3,4-diaminoquinoline and 3,4-diamino-5,6,7,8-tetrahydroquinoline compounds useful for improving psychoneural function” (Chugai Seiyaku Kabushiki Kaisha, priority 1988, dated 1991).
Read-outs that look alike come from different tables or passages of the source.

How the values were obtained:
[1] = tested on: norepinephrine uptake into the synaptosomes; assay: Inhibition of catecholamine uptake: 3H-norepinephrine uptake into synaptosomes; type: biochemical, rats (F344/Crj); details: 1 μM; norepinephrine uptake in the absence of drug compounds taken as 100
Experimental: (§1) Inhibition of Catecholamine Uptake:
(§2) A crude synaptosomal fraction (P2) was obtained from the brain of rats (F344/Crj) in the usual manner. In accordance with the method of S. H. Snyder and J. T. Coyle described in Journal of Pharmacology and Experimental Therapeutics, 165(1), 78-86, 1969, the fraction P2 was incubated in a Krebs-Henseleit bicarbonate buffer solution at 37° C. for 10 minutes together with 50 nM ^3 H-norepinephrine (0.25 jμCi). Thereafter, the uptake of norepinephrine into the synaptosomes was measured by the filtration method. Selected compounds were added at a concentration of 1 μM to the solution being incubated and their effect on norepinephrine uptake was examined. The control drug was tetrahydroaminoacridine (THA).
The results are shown in Table 3 in terms of percentage, with norepinephrine uptake in the absence of drug compounds being taken as 100.

[2] = tested on: uptake of dopamine into synaptosomes; assay: Inhibition of catecholamine uptake: 3H-dopamine uptake into synaptosomes; type: biochemical, rats (F344/Crj); details: 1 μM; dopamine uptake in the absence of drugs taken as 100
Experimental: as §2, §1
The uptake of dopamine into synaptosomes was measured by repeating the procedure of Test Example 2 except that 50 nM ^3 H-norepinephrine (0.25 μCi) was replaced by 15 nM ^3 H-dopamine (0.68 μCi). The control drug was tetrahydroaminoacridine (THA). The result is shown in Table 5 in terms of percentage, with dopamine uptake in the absence of drugs being taken as 100.

MAO-A = target: T1, MAO-A (Rattus norvegicus, UniProt P21396); assay: Inhibition of monoamine oxidase: MAO-A; type: biochemical, rats (F344/Crj); details: read-out: Inhibition rate (%) MAO-A
T1 construct: A crude synaptosomal fraction (P2) was obtained from the brain of rats (F344/Crj); from tissue; host or cells: rat (F344/Crj) brain, crude synaptosomal fraction (P2), homogenized
T1 sequence (P21396 1-526): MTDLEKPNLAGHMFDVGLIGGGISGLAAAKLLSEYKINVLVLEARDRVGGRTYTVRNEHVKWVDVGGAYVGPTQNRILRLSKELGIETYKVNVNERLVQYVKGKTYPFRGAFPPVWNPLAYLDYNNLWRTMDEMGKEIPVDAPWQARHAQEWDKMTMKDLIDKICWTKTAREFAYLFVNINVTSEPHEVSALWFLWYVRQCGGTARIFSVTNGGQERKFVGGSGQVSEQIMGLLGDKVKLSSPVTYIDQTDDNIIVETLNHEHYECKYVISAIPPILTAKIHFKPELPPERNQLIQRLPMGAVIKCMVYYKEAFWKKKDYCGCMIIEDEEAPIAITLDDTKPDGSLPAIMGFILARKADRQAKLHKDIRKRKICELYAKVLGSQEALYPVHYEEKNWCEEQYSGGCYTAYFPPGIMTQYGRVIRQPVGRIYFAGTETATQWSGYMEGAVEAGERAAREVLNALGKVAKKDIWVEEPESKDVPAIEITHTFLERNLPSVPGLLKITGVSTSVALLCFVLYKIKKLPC
Experimental: (§3) Inhibition of Monoamine Oxidase (MAO):
(§4) A crude synaptosomal fraction (P2) was obtained from the brain of rats (F344/Crj) in the usual manner and homogenized to perform MAO activity measurements. The substrate was 12 μM [^14 C]-serotonin in the case of MAO-A activity measurements, and 5 μM [^14 C]-2-phenethylamine in the case of MAO-B activity measurements. In accordance with the method of R. J. Wurtman and J. Axelrod described in Biochemical Pharmacol. 12, […], 1963, the homogenates were incubated in 100 mM phosphate buffer (pH 7.4) at 37° C. for 20 minutes and the effect of adding selected compounds at a concentration of 10 μM was evaluated.

MAO-B = target: T2, MAO-B (Rattus norvegicus, UniProt P19643); assay: Inhibition of monoamine oxidase: MAO-B; type: biochemical, rats (F344/Crj); details: read-out: Inhibition rate (%) MAO-B
T2 construct: A crude synaptosomal fraction (P2) was obtained from the brain of rats (F344/Crj); from tissue; host or cells: rat (F344/Crj) brain, crude synaptosomal fraction (P2), homogenized
T2 sequence (P19643 1-520): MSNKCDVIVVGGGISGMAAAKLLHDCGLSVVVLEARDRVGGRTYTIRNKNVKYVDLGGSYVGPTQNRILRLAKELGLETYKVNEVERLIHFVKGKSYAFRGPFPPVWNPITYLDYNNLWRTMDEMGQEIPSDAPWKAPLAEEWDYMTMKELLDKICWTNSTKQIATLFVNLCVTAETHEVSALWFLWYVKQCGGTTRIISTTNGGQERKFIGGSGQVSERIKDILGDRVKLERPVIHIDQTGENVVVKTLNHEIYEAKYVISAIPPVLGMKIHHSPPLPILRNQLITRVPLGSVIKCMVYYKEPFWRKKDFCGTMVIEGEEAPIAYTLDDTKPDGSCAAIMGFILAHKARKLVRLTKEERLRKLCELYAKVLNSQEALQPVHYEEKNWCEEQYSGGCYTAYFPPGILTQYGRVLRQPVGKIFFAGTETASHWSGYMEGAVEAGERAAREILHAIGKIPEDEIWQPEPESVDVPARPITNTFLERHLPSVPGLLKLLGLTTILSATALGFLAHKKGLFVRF
Experimental: as §3, §4

acetylcholinesterase = target: T3, acetylcholinesterase (Electrophorus electricus, UniProt O42275); assay: Inhibition of acetylcholinesterase activity; type: biochemical; details: activity without drug compound taken as 100, average of three measurements, read-out: Inhibition rate (%)
T3 construct: purchased Sigma C-2888
T3 sequence (O42275 24-633): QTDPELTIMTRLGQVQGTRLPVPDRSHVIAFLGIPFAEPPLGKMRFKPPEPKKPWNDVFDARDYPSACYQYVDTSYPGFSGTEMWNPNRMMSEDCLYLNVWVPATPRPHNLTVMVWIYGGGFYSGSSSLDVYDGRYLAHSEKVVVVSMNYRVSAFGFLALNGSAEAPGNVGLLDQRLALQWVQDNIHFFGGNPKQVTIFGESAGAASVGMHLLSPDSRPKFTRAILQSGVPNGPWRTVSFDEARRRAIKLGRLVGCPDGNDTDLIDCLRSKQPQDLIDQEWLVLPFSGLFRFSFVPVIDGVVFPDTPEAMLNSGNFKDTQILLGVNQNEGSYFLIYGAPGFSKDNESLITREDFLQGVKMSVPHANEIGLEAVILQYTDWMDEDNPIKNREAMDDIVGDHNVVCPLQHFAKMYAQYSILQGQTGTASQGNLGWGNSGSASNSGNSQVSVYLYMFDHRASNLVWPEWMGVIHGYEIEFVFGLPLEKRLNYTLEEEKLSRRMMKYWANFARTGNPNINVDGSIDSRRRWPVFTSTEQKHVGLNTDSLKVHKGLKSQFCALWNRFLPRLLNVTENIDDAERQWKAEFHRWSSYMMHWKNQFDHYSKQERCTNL
Experimental: Inhibition of Acetylcholinesterase Activity:
Acetylcholinesterase activity was assayed in accordance with the method of S. H. Sterri and F. Fonnum described in European Journal of Biochemistry, 91: 215-222, 1978. The method consisted of incubating 0.5 μU of authentic acetylcholinesterase ([…]) (Sigma, No. C-2888) at 30° C. for 15 minutes in a 20 mM sodium phosphate buffer (pH 7.4). with 1.3 mM [1^-14 C] acetylcholine (0.025 μCi) being used as a substrate. Selected compounds of the general formula (I) were added at a concentration of 1 μM to the reaction solution and the resulting effect on enzymatic activity was evaluated.
The result was obtained as the average of three measurements and shown in Table 2 in terms of percentage, with the activity for the case where no drum compound was added being taken as 100.

male ICR mice = assay: Improvement of memory and learning ability tested by passive avoidance response; type: in vivo; details: dose 10 (μg/kg i.p.); retention trial 24 hours after acquisition trial
Experimental: Improvement of memory and Learning Ability Tested by Passive Avoidance Response:
Four groups of male ICR mice (10-14 weeks old). each consisting of 10 animals, were used in the experiment. Except for one control group, the mice were administered with selected compounds of the present invention. The experimental chamber consisted of a light and a dark compartment and an electric current shock source was connected to the floor grid in the dark compartment.
The experimental sessions consisted of acclimation. acquisition, and retention trials and were performed for […], one trial per day. In the acclimation trial, animals were placed in the light compartment of the experimental chamber and left there for 5 minutes to acclimate them to the apparatus. In the acquisition trial which was conducted on the 2nd day, the animals were placed in the light compartment and when they entered the dark compartment, they were confined and given an a.c. electric shock (1 mA) through the floor grid for 10 seconds. In the retention trial which was conducted 24 hours after the acquisition trial, the animals were placed in the light compartment of the chamber and the step-through latency (i.e., the time required for the animals to enter the dark compartment) was measured. A physiological saline solution was administered at the acclimation trial to all of the animals. At the acquisition trial, selected compounds were administered in amounts of 10 μg/kg of body weight (1 ml/100 g). The control group was administered the same amount of physiological saline solution 60 minutes before the start of the trial. All administrations were intraperitoneal.

[3] = 10 μM, 12 μM [14C]-serotonin substrate, None = 100
[4] = 10 μM, 5 μM [14C]-2-phenethylamine substrate, None = 100

| Compound | Inhibition rate (%) [1] [%] | Inhibition rate (%) [2] [%] | inhibition at 1 µM (acetylcholinesterase) [%] | Step through latency (male ICR mice) [s] | also measured |
| --- | --- | --- | --- | --- | --- |
| CCCN(CCC)c1c(C2CCCCC2O)nc2c(c1N)CCCC2 (centres unmarked) [Compound 30] | 76.9 | 79.2 | – | – | – |
| Nc1c2c(nc3ccccc13)CCCC2 [control, tetrahydroaminoacridine, reference compound] | – | – | – | – | inhibition at 10 µM (MAO-A): 60.8%; inhibition at 10 µM (MAO-B): 90.3% |
| Nc1c2c(nc(C3CCCCC3=O)c1N1CCOCC1)CCCC2 (centres unmarked) [Compound 41] | – | – | 4.2 | – | – |
| Nc1ccnc(C2CCCCC2=O)c1N1CCCCC1 (centres unmarked) [Compound 50] | – | – | – | 83.4 ± 14.8 | – |
| Nc1c2c(nc(C3CCCCC3)c1N1CCOCC1)CCCC2 [Compound 19, 4-amino-2-cyclohexyl-3-morpholino-5,6,7,8-tetrahydroquinoline] | 83.2 | – | 21.8 | 107.1 ± 29.9 | – |
| CCCC(C)c1nc2ccccc2c(N)c1N1CCOCC1 (centres unmarked) [Compound 39] | 71.9 | – | – | 108.3 ± 16.0 | – |
| CCNc1nc2ccccc2c(N)c1N1CCOCC1 [Compound 43, 4-amino-2-ethylamino-3-morpholinoquinoline] | 78.8 | – | – | 109.1 ± 13.4 | – |
| Nc1c2c(nc(C3CCCCC3)c1N1CCCCC1)CCCC2 [Compound 28] | 85.2 | 80.5 | 22.2 | – | – |
| CCCN(CCC)c1c(C2CCCCC2)nc2c(c1N)CCCC2 [Compound 32] | 73.2 | 71.0 | 28.7 | 109.7 ± 16.6 | – |
| CCOc1nc2ccccc2c(N)c1N1CCCCC1 [Compound 44] | – | – | – | 90.4 ± 12.4 | – |
| CCNc1c(N2CCOCC2)nc2ccccc2c1N [Compound 52, 4-amino-3-ethylamino-2-morpholinoquinoline] | 79.8 | 57.8 | – | – | inhibition at 10 µM (MAO-A; [3]): 0%; inhibition at 10 µM (MAO-B; [4]): 63% |
| CCN(CC)c1c(NC2CCCCC2)nc2c(c1N)CCCC2 [Compound 34] | 80.0 | 84.8 | – | – | – |
| Nc1c(N2CCCCC2)c(Nc2ccccc2)nc2ccccc12 [Compound 35] | – | – | 28.3 | – | – |
| CCN(CC)c1c(C2CCCCC2)nc2ccccc2c1N [Compound 24] | 68.2 | 59.6 | – | 94.2 ± 14.7 | – |
| Nc1c(N2CCCCC2)cnc2ccccc12 [Compound 1, 4-amino-3-piperidinoquinoline] | 69.1 | – | – | – | – |
| CCN(CC)c1c(C2CCCCC2O)nc2c(c1N)CCCC2 (centres unmarked) [Compound 23] | 73.7 | 83.0 | – | – | – |
| CCN(CC)c1c(C2CCCCC2=O)nc2ccccc2c1N (centres unmarked) [Compound 22] | – | – | – | 144.8 ± 25.5 | – |
| CCN(CC)c1c(C2CCCCC2)nc2c(c1N)CCCC2 [Compound 25] | 75.3 | 76.4 | 30.1 | – | – |
| CCCC(C)c1nc2c(c(N)c1N1CCOCC1)CCCC2 (centres unmarked) [Compound 40] | – | – | – | 113.1 ± 29.6 | – |
| Nc1c(N2CCCCC2)cnc2ccccc12 [drawing 149] | – | – | – | – | inhibition at 10 µM (MAO-A; [3]): 44.1%; inhibition at 10 µM (MAO-B; [4]): 82.9% |
| Nc1c(N2CCOCC2)c(Nc2ccccc2)nc2ccccc12 [Compound 13, 4-amino-2-anilino-3-morpholinoquinoline] | – | – | – | 100.2 ± 17.8 | – |
| Nc1c2c(nc(NC3CCCCC3)c1N1CCOCC1)CCCC2 [Compound 16] | 88.1 | – | 25.9 | 102.1 ± 22.3 | – |
| CCNc1nc2ccccc2c(N)c1N1CCCCC1 [Compound 45] | 79.8 | 82.3 | – | 70.7 ± 6.8 | – |
| Nc1c2c(nc(C3CCCCC3O)c1N1CCOCC1)CCCC2 (centres unmarked) [Compound 6, 4-amino-g-(2.-hydroxycyclohexyl)-3-morpholino-5,6,7,8-tetrahydroquinoline] | 82.6 | – | 36.9 | 144.8 ± 45.1 | – |
| Nc1c2c(nc(Nc3ccccc3)c1N1CCOCC1)CCCC2 [Compound 15, 4-amino-2-anilino-3-morpholino-5,6,7,8-tetrahydroquinoline] | 85.4 | – | 37.2 | 80.4 ± 14.6 | – |
| Nc1ccnc(C2CCCCC2=O)c1N1CCOCC1 (centres unmarked) [Compound 49] | – | 67.5 | – | – | inhibition at 10 µM (MAO-A; [3]): 54.5%; inhibition at 10 µM (MAO-B; [4]): 71.2% |
| Nc1c(N2CCOCC2)c(C2CCCCC2)nc2ccccc12 [Compound 18, 4-amino-2-cyclohexyl-3-morpholinoquinoline] | – | – | – | 116.4 ± 29.2 | – |
| Nc1c(N2CCCCC2)c(C2CCCCC2)nc2ccccc12 [Compound 26] | 68.2 | 55.4 | – | – | – |
| CN1CCN(c2cnc3ccccc3c2N)CC1 [Compound 2] | – | – | 27.1 | 92.1 ± 13.5 | – |
